Values quoted from earlier work, collected in patent US12491200B2, “Compositions and methods using cannabinoids for treating stammering/stuttering and symptoms of Tourette syndrome” (priority 2019, dated 2025).

Key:
tic disorders = details: for tic symptom score: compared with placebo; for most common adverse events: tic disorders
Tourette syndrome = details: patients aged between 16 and 19; very high doses

Compound | tic symptom score (tic disorders) | most common adverse events (tic disorders) | speech fluency (developmental stuttering) | symptoms such as vocal blocking tics and comorbid conditions (Tourette syndrome)
O=C1CCc2ccc(OCCCCN3CCN(c4cccc(Cl)c4Cl)CC3)cc2N1 [aripiprazole] | significantly improve tic symptom score | dizziness, nausea, and dry mouth | – | –
O=C(CCCN1CCC(O)(c2ccc(Cl)cc2)CC1)c1ccc(F)cc1 [haloperidol] | significantly improve tic symptom score | drowsiness, extrapyramidal reactions, and dry mouth | improve speech fluency | –
N[C@@H](Cc1ccc(O)c(O)c1)C(=O)O [levodopa] | – | – | worsening speech fluency | –
OCCOCCN1CCN(C2=Nc3ccccc3Sc3ccccc32)CC1 [quetiapine] | significantly improve tic symptom score | – | – | –
Cc1nc2n(c(=O)c1CCN1CCC(c3noc4cc(F)ccc34)CC1)CCCC2 [risperidone] | significantly improve tic symptom score | drowsiness and appetite | improve speech fluency | –
CCCCCc1cc(O)c2c(c1)OC(C)(C)[C@@H]1CCC(C)=C[C@@H]21 [synthetic THC, delta-9-tetrahydrocannabinol] | – | – | – | significant improvement
CCN(CC)CCNC(=O)c1cc(S(C)(=O)=O)ccc1OC [tiapride] | – | dizziness, nausea, and dry mouth | – | –
O=C1Cc2cc(CCN3CCN(c4nsc5ccccc45)CC3)c(Cl)cc2N1 [ziprasidone] | significantly improve tic symptom score | – | – | –
